The record followed here is patent US20090209522A1, “Heterocyclic Non-Peptide GNRH Antagonists” (priority 2005, published 2009).

One data set addresses T1, human GnRH receptors (Homo sapiens, UniProt P30968).
T1 construct: expressed in transfected cells; host or cells: CHO-K1
T1 sequence (P30968 1-328): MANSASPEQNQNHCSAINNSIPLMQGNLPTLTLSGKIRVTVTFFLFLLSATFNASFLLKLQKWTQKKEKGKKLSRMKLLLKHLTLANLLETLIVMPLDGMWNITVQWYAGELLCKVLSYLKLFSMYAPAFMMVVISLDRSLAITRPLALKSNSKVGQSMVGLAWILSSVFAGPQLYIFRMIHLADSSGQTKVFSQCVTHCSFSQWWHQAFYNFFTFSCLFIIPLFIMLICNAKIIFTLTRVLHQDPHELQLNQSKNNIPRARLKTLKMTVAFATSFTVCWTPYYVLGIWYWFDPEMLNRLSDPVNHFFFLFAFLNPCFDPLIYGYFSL
Nature of the data set: Human GnRH receptor functional assay (intracellular calcium release). It is filed as cell-based. The following applies: CHO-K1 cells expressing human GnRH receptors; block of GnRH (EC80)-induced intracellular calcium release; 20 minutes pre-incubation. As to the method: Human GnRH Receptor Functional Assay
GnRH-receptor antagonists may be functionally assessed by measurement of change in intracellular calcium levels induced by Gαq mediated increase in IP3 levels. The ability of compounds to block the intracellular release of calcium by GnRH in CHO-K1 cells expressing human GnRH receptors is determined as a measure of the compound's antagonist activity in vitro. Approximately 30,000 cells per assay well (half well 96 well assay plate—Corning) are seeded in normal culture medium. Twenty four hours after seeding the cells are loaded with a calcium sensitive fluorescent dye by replacing the culture medium with assay buffer (1× Hanks buffered saline, 25 mM HEPES, 0.1% w/v fatty acid free BSA, pH7.4) containing 2.5 mM probenecid and 1× Calcium Plus reagent (Molecular) Devices. Cells are incubated at 37° C. for 1 hour to allow for dye uptake. To test for antagonist activity, compounds at a concentration range between 0.1 nM-3.2 μM are added to the assay wells and allowed to incubate 20 minutes prior to stimulation with GnRH. After incubation with test compounds the assay plate is placed in a Flexstation II (Molecular Devices) and GnRH is added at the determined EC80 concentration (final). Ligand-dependent changes in intracellular calcium levels are determined by measuring changes in fluorescence of the dye at […] following excitation at 485 nm. Percentage inhibition curves are plotted using 4-parameter fit algorithm and IC50 values calculated for each compound.
A general note: Calcium flux is commonly read through the fluorescence of an indicator in the cells.

As a reminder, the melting point is the temperature, or range, at which the solid turns liquid. The compound `COc1nc(NCCCN2CCOCC2)nc(OC)c1NC(=O)c1coc(Oc2cccc(C(C)(C)C)c2)n1` [Example 1, 2-(3-tert-butylphenoxy)-N-(4,6-dimethoxy-2-(3-morpholinopropylamino)pyrimidin-5-yl)oxazole-4-carboxamide] showed a melting point of 85 °C.

What is called IC50 is the concentration needed to halve the response being measured. `COc1nc(NCCCN2CCOCC2)nc(OC)c1NC(=O)c1csc(Oc2cccc(C(C)(C)C)c2)n1` [Example 2, 2-(3-tert-butylphenoxy)-N-(4,6-dimethoxy-2-(3-morpholinopropylamino)pyrimidin-5-yl)thiazole-4-carboxamide] yielded a melting point of 68 °C. In addition, the IC50 at human GnRH receptors is 485 nM. Consider `COc1nc(NCCN(C)C)nc(OC)c1NC(=O)c1csc(Oc2cc(C(C)(C)C)ccc2C)n1` [Example 5, 2-(5-tert-Butyl-2-methylhenoxy)-N-(2-(2-(dimethylamino)ethylamino)-4,6-dimethoxypyrimidin-5-yl)thiazole-4-carboxamide], for which the IC50 at human GnRH receptors worked out at 193 nM. Consider `COc1cc2c(cc1Oc1nc(C(=O)Nc3c(OC)nc(NCCNC(C)C)nc3OC)cs1)C(C)(C)CC2` [Example 24, N-(2-(2-(Isopropylamino)ethylamino)-4,6-dimethoxypyrimidin-5-yl)-2-(6-methoxy-3,3-dimethyl-2,3-dihydro-1H-inden-5-yloxy)thiazole-4-carboxamide], for which the 50% inhibitory concentration (IC50) at human GnRH receptors amounted to 4 nM.
